Measured values reported in patent publication US6075013A, “Modified low molecular weight heparin that inhibits clot associated coagulation factors” (Hamilton Civic Hospitals Research Development Inc., priority 1998, dated 2000).

B1: prothrombin fragment 2 (F2): prothrombin fragment 2, binds to exosite 2 of thrombin (protein, UniProt P00734 199-327, looked up)
Activation peptide fragment 2: SEGSSVNLSPPLEQCVPDRGQQYQGRLAVTTHGLPCLAWASAQAKALSKHQDFNSAVQLVENFCRNPDGDEEGVWCYVAGKPGDFGYCDLNYCEEAVEEETGDGLDEDSDRAIEGRTATSEYQTFFNPR
modifications: Activation peptide fragment 2

Assays:
washed plasma clot = assay: procoagulant activity of washed plasma clot in unanticoagulated whole blood; assay type: biochemical; settings: washed plasma clot incubated in unanticoagulated whole blood
Text: There is mounting evidence that both fibrin-bound thrombin and platelet-bound factor Xa contribute to the intense procoagulant activity of thrombi. […] Development of these agents requires an understanding of the mechanisms by which fibrin-bound IIa and platelet-bound factor Xa are protected from inactivation by heparin, LMWH and hirudin.

injured rabbit aorta = assay: rabbit arterial thrombosis prevention model; assay type: in vivo; settings: over the doses tested
Procedure: The arterial thrombosis prevention model was modified so that both efficacy and safety could be assessed in the same animal. […] The four compounds were compared at three dosage levels. Each compound was administered as a bolus and infusion for 90 minutes. The doses listed in the following figures represent the bolus and infusion/60 minutes, administered for 90 minutes. The doses for heparin are shown as units/Kg, for LMWH and V21 as mg/Kg and for hirudin as mg/Kg. […] Thus, the specific activity of LMWH is 100 anti-Xa/mg and 30 anti-IIa units/mg. […] The anticoagulants were compared in the following dosages. Heparin 50 units/Kg and 75 unit/Kg; LMWH and V21 0.5, 1.0 and 1.5 mg/Kg; Hirudin 0.1/0.1, 0.1/0.2 and 0.1/0.3 mg/Kg.
FIG. 11 compares the efficacy of the four anticoagulants using cumulative time that the aorta remained patent over the 90 minutes of observation as the outcome measure of efficacy. One hundred percent accumulated patency reflects complete patency and 0% cumulative patency reflects immediate and sustained thrombotic occlusion.

[1] = target: thrombin (IIa) binding to fibrin (Homo sapiens, UniProt P00734); assay: effect on thrombin (IIa) binding to fibrin / fibrin monomer-sepharose; settings: presence of 250 nM heparin
Procedure: FIGS. 1A and 1B illustrate the effects of varying heparin concentrations on thrombin (IIa) binding to fibrin (A) and on thrombin's apparent affinity for fibrin (B).
FIG. 3 illustrates the effect of hirugen (Hg), prothrombin fragment 2 (F2) or antibody against exosite 2 (Wab) on thrombin (IIa) binding to fibrin monomersepharose in the absence or presence of 250 nM heparin.
FIG. 9 illustrates the effect of unfractionated heparin (UFH) and a 6,000 Da heparin fraction (MLMWH) on thrombin (IIa) binding to fibrin.
When heparin is present, the amount of thrombin that binds to fibrin changes, as does the mode of thrombin interaction with fibrin.
The mode of thrombin binding also changes in the presence of heparin. Whereas thrombin binds to fibrin via exosite 1 in the absence of heparin, enhanced α-thrombin binding seen in the presence of heparin is mediated by exosite 2 because heparin augments the binding of γ-thrombin to the same extent as α-thrombin but has little effect on the binding of RA-thrombin (FIG. 2). Furthermore, excess α-thrombin bound in the presence of heparin is displaced with an antibody to exosite 2 or with prothrombin fragment 2 (F2) which, like heparin, also binds to exosite 2 (Arni, R. K., et al. (1993) Biochemistry 32:4727-4737). […]

Molecule	block of the clot's ability to accelerate coagulation (washed plasma clot)	response of the model to the antithrombotic effects (injured rabbit aorta)	effect on heparin-dependent binding of thrombin to fibrin [1]
TAP: tick anticoagulant peptide, a direct inhibitor of factor Xa (YNRLCIKPRDWIDECDSNEGGERAYFRNGKGGCDSFWICPEDHTGADYYSSYRDCFNACI; UniProt P17726 1-60, looked up)	cannot be blocked		
hirudin	cannot be blocked	very responsive	
B1			displaced
